Results from patent publication US20250049035A1, “MICROBIOCIDAL BICYCLE HETEROCYCLIC DERIVATIVES” (SYNGENTA CROP PROTECTION AG, priority 2021, published 2025).

Assays:
Alternaria solani = Alternaria solani / tomato / leaf disc (early blight); format: in vivo; settings: foliar, tomato leaf disks cv. Baby, inoculated 2 days after application, assessed 5-7 days after application, compared to untreated control
Method: Example B1: Alternaria solani/Tomato/Leaf Disc (Early Blight) Tomato leaf disks cv. Baby are placed on agar in multiwell plates (24-well format) and sprayed with the formulated test compound diluted in water. The leaf disks are inoculated with a spore suspension of the fungus 2 days after application. The inoculated leaf disks are incubated at 23° C./21° C.

[1] = system: Mycosphaerella arachidis (Cercospora arachidicola); test: Mycosphaerella arachidis (Cercospora arachidicola) / liquid culture (early leaf spot); format: cell-based; settings: liquid culture (potato dextrose broth), growth inhibition photometrically 4-5 days after application, compared to untreated control
Method: Example B10: Mycosphaerella arachidis (Cercospora arachidicola)/Liquid Culture (Early Leaf Spot) Conidia of the fungus from cryogenic storage are directly mixed into a nutrient broth (potato dextrose broth) After placing a DMSO solution of test compound into a microtiter plate (96-well format), the nutrient broth containing the fungal spores is added. The test plates are incubated at 24° C. and the inhibition of growth is determined photometrically 4-5 days after application.

[2] = system: Monographella nivalis (Microdochium nivale); test: Monographella nivalis (Microdochium nivale) / liquid culture (foot rot cereals); format: cell-based; settings: liquid culture (potato dextrose broth), growth inhibition photometrically 4-5 days after application, compared to untreated control
Method: Example B9: Monographella nivalis (Microdochium nivale)/Liquid Culture (Foot Rot Cereals) Conidia of the fungus from cryogenic storage are directly mixed into a nutrient broth (potato dextrose broth). After placing a DMSO solution of test compound into a microtiter plate (96-well format), the nutrient broth containing the fungal spores is added. The test plates are incubated at 24° C. and the inhibition of growth is determined photometrically 4-5 days after application.

[3] = system: Botryotinia fuckeliana (Botrytis cinerea); test: Botryotinia fuckeliana (Botrytis cinerea) / liquid culture (gray mould); format: cell-based; settings: liquid culture (Vogels broth), growth inhibition photometrically 3-4 days after application, compared to untreated control
Method: Example B2: Botryotinia fuckeliana (Botrytis cinerea)/Liquid Culture (Gray Mould) Conidia of the fungus from cryogenic storage are directly mixed into a nutrient broth (Vogels broth). After placing a DMSO solution of test compound into a microtiter plate (96-well format), the nutrient broth containing the fungal spores is added. The test plates are incubated at 24° C. and the inhibition of growth is determined photometrically 3-4 days after application.

[4] = system: Mycosphaerella graminicola (Septoria tritici); test: Mycosphaerella graminicola (Septoria tritici) / liquid culture (Septoria blotch); format: cell-based; settings: Zymoseptoria tritici, liquid culture (potato dextrose broth), growth inhibition photometrically 4-5 days after application, compared to untreated control
Method: Example B15: Mycosphaerella graminicola (Septoria tritici/Liquid Culture (Septoria Blotch) Conidia of the fungus from cryogenic storage are directly mixed into a nutrient broth (potato dextrose broth). After placing a DMSO solution of test compound into a microtiter plate (96-well format), the nutrient broth containing the fungal spores is added. The test plates are incubated at 24° C. and the inhibition of growth is determined photometrically 4-5 days after application.

[5] = system: Glomerella lagenarium (Colletotrichum lagenarium); test: Glomerella lagenarium (Colletotrichum lagenarium) / liquid culture (anthracnose); format: cell-based; settings: Colletotrichum orbiculare, liquid culture (potato dextrose broth), growth inhibition photometrically 3-4 days after application, compared to untreated control
Method: Example B3: Glomerella lagenarium (Colletotrichum lagenarium)/Liquid Culture (Anthracnose) Conidia of the fungus from cryogenic storage are directly mixed into a nutrient broth (potato dextrose broth). After placing a DMSO solution of test compound into a microtiter plate (96-well format), the nutrient broth containing the fungal spores is added. The test plates are incubated at 24° C. and the inhibition of growth is measured photometrically 3-4 days after application.

Pyrenophora teres = Pyrenophora teres / barley / leaf disc preventative (net blotch); format: in vivo; settings: foliar, barley leaf segments cv. Hasso, inoculated 2 days after application, assessed 5-7 days after application, compared to untreated control
Method: Example B12: Pyrenophora teres/Barley/Leaf Disc Preventative (Net Blotch) Barley leaf segments cv. Hasso are placed on agar in a multiwell plate (24-well format) and sprayed with the formulated test compound diluted in water. The leaf segments are inoculated with a spore suspension of the fungus 2 days after application. The inoculated leaf segments are incubated at 20° C. and 65% relative humidity under a light regime of 12 h light/12 h darkness in a climate cabinet and the activity of a compound is assessed as disease control compared to untreated when an appropriate level of disease damage appears in untreated check leaf segments (5-7 days after application).

[6] = system: Phaeosphaeria nodorum (Septoria nodorum); test: Phaeosphaeria nodorum (Septoria nodorum) / wheat / leaf disc preventative (glume blotch); format: in vivo; settings: Parastagonospora nodorum, foliar, wheat leaf segments cv. Kanzler, inoculated 2 days after application, assessed 5-7 days after application, compared to untreated control
Method: Example B8: Phaeosphaeria Nodorum (Septoria nodorum)/Wheat/Leaf Disc Preventative (Glume Blotch) Wheat leaf segments cv. Kanzler are placed on agar in a multiwell plate (24-well format) and sprayed with the formulated test compound diluted in water. The leaf disks are inoculated with a spore suspension of the fungus 2 days after application. The inoculated test leaf disks are incubated at 20° C. and 75% relative humidity under a light regime of 12 h light/12 h darkness in a climate cabinet and the activity of a compound is assessed as percent disease control compared to untreated when an appropriate level of disease damage appears in untreated check leaf disks (5-7 days after application).

C[C@H]1c2ccsc2[C@@](C)(c2cnn(C)c2)CN1C(=O)c1nnc(-c2ccc(F)cc2F)s1 (racemic) [Compound P-8, [5-(2,4-difluorophenyl)-1,3,4-thiadiazol-2-yl]-[rac-(4R,7R)-4,7-dimethyl-7-(1-methylpyrazol-4-yl)-4,6-dihydrothieno[3,2-c]pyridin-5-yl]methanone]
≥ 80%: pest or weed control at 200 ppm (Alternaria solani) | inhibition of growth at 20 ppm [1] | inhibition of growth at 20 ppm [2] | inhibition of growth at 20 ppm [3] | inhibition of growth at 20 ppm [4] | inhibition of growth at 20 ppm [5] | pest or weed control at 200 ppm (Pyrenophora teres)

C[C@@H]1c2sccc2[C@@H](c2cnn(C)c2)CN1C(=O)c1nnc(-c2ccc(F)cc2F)s1 (racemic) [Compound P-16, [5-(2,4-difluorophenyl)-1,3,4-thiadiazol-2-yl]-[rac-(4R,7R)-7-methyl-4-(1-methylpyrazol-4-yl)-5,7-dihydro-4H-thieno[2,3-c]pyridin-6-yl]methanone]
≥ 80%: inhibition of growth at 20 ppm [4]

C[C@@H]1c2sccc2[C@H](c2cnn(C)c2)CN1C(=O)c1nnc(-c2ccc(F)cc2F)s1 [Compound P-1, [5-(2,4-difluorophenyl)-1,3,4-thiadiazol-2-yl]-[(4S,7R)-7-methyl-4-(1-methylpyrazol-4-yl)-5,7-dihydro-4H-thieno[2,3-c]pyridin-6-yl]methanone]
≥ 80%: inhibition of growth at 20 ppm [2] | inhibition of growth at 20 ppm [4]

Cc1c([C@@H]2CN(C(=O)c3cc(-c4ccc(F)cc4F)on3)Cc3ccsc32)cnn1C [Compound P-4, [5-(2,4-difluorophenyl)isoxazol-3-yl]-[(7R)-7-(1,5-dimethylpyrazol-4-yl)-6,7-dihydro-4H-thieno[3,2-c]pyridin-5-yl]methanone]
≥ 80%: pest or weed control at 200 ppm (Alternaria solani) | inhibition of growth at 20 ppm [2] | pest or weed control at 200 ppm [6] | inhibition of growth at 20 ppm [4] | inhibition of growth at 20 ppm [5] | pest or weed control at 200 ppm (Pyrenophora teres)

C[C@@H]1c2sccc2[C@](C)(c2cnn(C)c2)CN1C(=O)c1nnc(-c2ccc(F)cc2F)s1 [Compound P-5, [5-(2,4-difluorophenyl)-1,3,4-thiadiazol-2-yl]-[(4S,7R)-4,7-dimethyl-4-(1-methylpyrazol-4-yl)-5,7-dihydrothieno[2,3-c]pyridin-6-yl]methanone]
≥ 80%: inhibition of growth at 20 ppm [1] | inhibition of growth at 20 ppm [5]

CC1c2ccsc2C(C)(c2cnn(C)c2)CN1C(=O)c1cc(-c2ccc(F)cc2F)on1 (centres unmarked) [Compound P-20, [5-(2,4-difluorophenyl)isoxazol-3-yl]-[4,7-dimethyl-7-(1-methylpyrazol-4-yl)-4,6-dihydrothieno[3,2-c]pyridin-5-yl]methanone]
≥ 80%: pest or weed control at 200 ppm (Alternaria solani) | inhibition of growth at 20 ppm [1] | pest or weed control at 200 ppm [6] | inhibition of growth at 20 ppm [3] | inhibition of growth at 20 ppm [4] | inhibition of growth at 20 ppm [5]

Cn1cc(C2CN(C(=O)c3cc(-c4ccc(F)cc4F)on3)Cc3cnsc32)cn1 (centres unmarked) [Compound P-23, [5-(2,4-difluorophenyl)isoxazol-3-yl]-[7-(1-methylpyrazol-4-yl)-6,7-dihydro-4H-isothiazolo[4,5-c]pyridin-5-yl]methanone]
≥ 80%: pest or weed control at 200 ppm (Alternaria solani) | inhibition of growth at 20 ppm [2] | inhibition of growth at 20 ppm [4] | inhibition of growth at 20 ppm [5]

Cn1cc(C2CN(C(=O)c3cc(-c4ccc(F)cc4F)on3)Cc3sncc32)cn1 (centres unmarked) [Compound P-26, [5-(2,4-difluorophenyl)isoxazol-3-yl]-[4-(1-methylpyrazol-4-yl)-5,7-dihydro-4H-isothiazolo[5,4-c]pyridin-6-yl]methanone]
≥ 80%: pest or weed control at 200 ppm (Alternaria solani) | inhibition of growth at 20 ppm [2] | pest or weed control at 200 ppm [6] | inhibition of growth at 20 ppm [3] | inhibition of growth at 20 ppm [4] | inhibition of growth at 20 ppm [5]

Cc1c(C2CN(C(=O)c3cc(-c4ccc(F)cc4F)on3)Cc3ncsc32)cnn1C (centres unmarked) [Compound P-28, [5-(2,4-difluorophenyl)isoxazol-3-yl]-[7-(1,5-dimethylpyrazol-4-yl)-6,7-dihydro-4H-thiazolo[4,5-c]pyridin-5-yl]methanone]
≥ 80%: pest or weed control at 200 ppm (Alternaria solani) | inhibition of growth at 20 ppm [1] | inhibition of growth at 20 ppm [2] | pest or weed control at 200 ppm [6] | inhibition of growth at 20 ppm [4] | inhibition of growth at 20 ppm [5] | pest or weed control at 200 ppm (Pyrenophora teres)

Cn1cc(C2CN(C(=O)c3cc(-c4ccc(F)cc4F)on3)Cc3cscc32)cn1 (centres unmarked) [Compound P-29]
≥ 80%: pest or weed control at 200 ppm (Alternaria solani) | inhibition of growth at 20 ppm [1] | inhibition of growth at 20 ppm [2] | pest or weed control at 200 ppm [6] | inhibition of growth at 20 ppm [3] | inhibition of growth at 20 ppm [4] | inhibition of growth at 20 ppm [5]

Cc1nn(C)c(C)c1C1CN(C(=O)c2cc(-c3ccc(F)cc3F)on2)Cc2sccc21 (centres unmarked) [Compound P-36, [5-(2,4-difluorophenyl)isoxazol-3-yl]-[4-(1,3,5-trimethylpyrazol-4-yl)-5,7-dihydro-4H-thieno[2,3-c]pyridin-6-yl]methanone]
≥ 80%: pest or weed control at 200 ppm (Alternaria solani) | inhibition of growth at 20 ppm [1] | inhibition of growth at 20 ppm [2] | inhibition of growth at 20 ppm [3] | inhibition of growth at 20 ppm [4] | inhibition of growth at 20 ppm [5] | pest or weed control at 200 ppm (Pyrenophora teres)

Cc1nn(C)c(C)c1C1CN(C(=O)c2cc(-c3ccc(F)cc3F)on2)Cc2ccsc21 (centres unmarked) [Compound P-37, [5-(2,4-difluorophenyl)isoxazol-3-yl]-[7-(1,3,5-trimethylpyrazol-4-yl)-6,7-dihydro-4H-thieno[3,2-c]pyridin-5-yl]methanone]
≥ 80%: pest or weed control at 200 ppm (Alternaria solani) | inhibition of growth at 20 ppm [1] | inhibition of growth at 20 ppm [2] | inhibition of growth at 20 ppm [4]
